Article PMC11003488 (Journal of Enzyme Inhibition and Medicinal Chemistry, 2023)
Where two headings read alike, the source gives them in different places.

Key:
COLO 205 = experiment: NCI-60 SRB growth inhibition, one-dose and five-dose; assay type: cell-based; details: Homo sapiens
A498 = experiment: as above; assay type: cell-based; details: Homo sapiens
UACC-257 = experiment: as above; assay type: cell-based; details: Homo sapiens
MOLT-4 = experiment: as above; assay type: cell-based; details: Homo sapiens
SK-MEL-2 = experiment: as above; assay type: cell-based; details: Homo sapiens, SK-MEL-2, read-out: percent growth inhibition
NCI-H460 = experiment: as above; assay type: cell-based; details: Homo sapiens
K-562 = experiment: as above; assay type: cell-based; details: Homo sapiens
OVCAR-5 = experiment: as above; assay type: cell-based; details: Homo sapiens
LOX IMVI = experiment: as above; assay type: cell-based; details: Homo sapiens
BT-549 = experiment: as above; assay type: cell-based; details: Homo sapiens
HT29 = experiment: as above; assay type: cell-based; details: Homo sapiens
EKVX = experiment: as above; assay type: cell-based; details: Homo sapiens
SK-MEL-5 = experiment: as above; assay type: cell-based; details: Homo sapiens
CAKI-1 = experiment: as above; assay type: cell-based; details: Homo sapiens
MCF7 = experiment: as above; assay type: cell-based; details: Homo sapiens
MDA-MB-468 = experiment: as above; assay type: cell-based; details: Homo sapiens
U251 = experiment: as above; assay type: cell-based; details: Homo sapiens
NCI/ADR-RES = experiment: as above; assay type: cell-based; details: Homo sapiens
DU-145 = experiment: as above; assay type: cell-based; details: Homo sapiens
SK-MEL-28 = experiment: as above; assay type: cell-based; details: Homo sapiens
T-47D = experiment: as above; assay type: cell-based; details: Homo sapiens, T47D
SF-295 = experiment: as above; assay type: cell-based; details: Homo sapiens
CCRF-CEM = experiment: as above; assay type: cell-based; details: Homo sapiens
SW-620 = experiment: as above; assay type: cell-based; details: Homo sapiens
RXF 393 = experiment: as above; assay type: cell-based; details: Homo sapiens
SNB-19 = experiment: as above; assay type: cell-based; details: Homo sapiens
OVCAR-3 = experiment: as above; assay type: cell-based; details: Homo sapiens
HOP-92 = experiment: as above; assay type: cell-based; details: Homo sapiens
OVCAR-4 = experiment: as above; assay type: cell-based; details: Homo sapiens
SK-OV-3 = experiment: as above; assay type: cell-based; details: Homo sapiens
NCI-H522 = experiment: as above; assay type: cell-based; details: Homo sapiens
MALME-3M = experiment: as above; assay type: cell-based; details: Homo sapiens
SF-268 = experiment: as above; assay type: cell-based; details: Homo sapiens
SNB-75 = experiment: as above; assay type: cell-based; details: Homo sapiens
NCI-H322M = experiment: as above; assay type: cell-based; details: Homo sapiens
786-0 = experiment: as above; assay type: cell-based; details: Homo sapiens
HCT-15 = experiment: as above; assay type: cell-based; details: Homo sapiens
A549/ATCC = experiment: as above; assay type: cell-based; details: Homo sapiens
NCI-H23 = experiment: as above; assay type: cell-based; details: Homo sapiens
M14 = experiment: as above; assay type: cell-based; details: Homo sapiens
SR = experiment: as above; assay type: cell-based; details: Homo sapiens
[1] = tested on: NCI 60-cell line panel (full panel); experiment: NCI-60 SRB growth inhibition, full panel mean / MG-MID; assay type: cell-based, human; details: for GI50: Homo sapiens, 60 cell
[2] = read-out: percent growth inhibition

Work on O=C(/C=C/c1cccnc1)c1cccc(NCc2ccc(CO)cc2)c1 [Compound 5e, (E)-1–(3-((4-(hydroxymethyl)benzyl)amino)phenyl)-3-(pyridin-3-yl)prop-2-en-1-one] yielded a GI50 (COLO 205; COLO 205) of 16.3 µM, an inhibition at 10 µM (COLO 205; COLO 205, read-out: percent growth inhibition) of 37.3% and a GI50 (A498; A498) of 14.8 µM. The inhibition at 10 µM (A498; A498, read-out: percent growth inhibition) was 15.3%, the GI50 (UACC-257; UACC-257) was 14.7 µM and the inhibition at 10 µM (UACC-257; UACC-257, read-out: percent growth inhibition) was 61.4%. The GI50 (MOLT-4; MOLT-4) was 2690 nM, the inhibition at 10 µM (MOLT-4; MOLT-4, read-out: percent growth inhibition) was 120% and the inhibition at 10 µM (SK-MEL-2) was 17.7%. The GI50 (NCI-H460; NCI-H460) was 14 µM, the inhibition at 10 µM (NCI-H460; NCI-H460, read-out: percent growth inhibition) was 64.7% and the GI50 (K-562; K562) was 2750 nM. For the same compound, the inhibition at 10 µM (K-562; K562, read-out: percent growth inhibition) was 99.1%, the GI50 (OVCAR-5; OVCAR-5) was 14.6 µM and the inhibition at 10 µM (OVCAR-5; OVCAR-5, read-out: percent growth inhibition) was 32.6%. For the same compound, the GI50 (LOX IMVI) was 1760 nM, the inhibition at 10 µM (LOX IMVI; [2]) was 197% and the GI50 (BT-549; BT-549) was 6.12 µM. The inhibition at 10 µM (BT-549; BT-549, read-out: percent growth inhibition) was 98.1%, the GI50 (HT29; HT-29) was 8.21 µM and the inhibition at 10 µM (HT29; HT-29, read-out: percent growth inhibition) was 173%. For the same compound, the GI50 (EKVX) was 13.7 µM, the inhibition at 10 µM (EKVX; [2]) was 56.8% and the GI50 (SK-MEL-5; SK-MEL-5) was 12.5 µM. The inhibition at 10 µM (SK-MEL-5; SK-MEL-5, read-out: percent growth inhibition) was 85.7%, the GI50 (CAKI-1; CAKI-1) was 13.5 µM and the inhibition at 10 µM (CAKI-1; CAKI-1, read-out: percent growth inhibition) was 42.3%. For the same compound, the GI50 (MCF7; MCF7) was 2150 nM, the inhibition at 10 µM (MCF7; MCF7, read-out: percent growth inhibition) was 163% and the GI50 (MDA-MB-468; MDA-MB-468) was 4 µM. For the same compound, the inhibition at 10 µM (MDA-MB-468; MDA-MB-468, read-out: percent growth inhibition) was 153%, the GI50 (U251; U-251) was 4.94 µM and the inhibition at 10 µM (U251; U-251, read-out: percent growth inhibition) was 146%. It also gave a GI50 (NCI/ADR-RES) of 11.3 µM, an inhibition at 10 µM (NCI/ADR-RES; [2]) of 104% and a GI50 (DU-145; DU-145) of 12.8 µM. For the same compound, the inhibition at 10 µM (DU-145; DU-145, read-out: percent growth inhibition) was 55%, the GI50 (SK-MEL-28; SK-MEL-28) was 13.6 µM and the inhibition at 10 µM (SK-MEL-28; SK-MEL-28, read-out: percent growth inhibition) was 121%. The GI50 (T-47D) was 9.17 µM, the inhibition at 10 µM (T-47D; [2]) was 59.1% and the GI50 (SF-295; SF-295) was 14.5 µM. For the same compound, the inhibition at 10 µM (SF-295; SF-295, read-out: percent growth inhibition) was 39.8%, the GI50 (CCRF-CEM) was 5.17 µM and the inhibition at 10 µM (CCRF-CEM; [2]) was 131%. For the same compound, the GI50 (SW-620; SW-620) was 2060 nM, the inhibition at 10 µM (SW-620; SW-620, read-out: percent growth inhibition) was 140% and the GI50 (RXF 393; RXF 393) was 13.7 µM. For the same compound, the inhibition at 10 µM (RXF 393; RXF 393, read-out: percent growth inhibition) was 121%, the GI50 (SNB-19; SNB-19) was 12.4 µM and the inhibition at 10 µM (SNB-19; SNB-19, read-out: percent growth inhibition) was 74.9%. It also gave a GI50 (OVCAR-3; OVCAR-3) of 10.3 µM, an inhibition at 10 µM (OVCAR-3; OVCAR-3, read-out: percent growth inhibition) of 131% and a GI50 (HOP-92; HOP-92) of 12.5 µM. For the same compound, the inhibition at 10 µM (HOP-92; HOP-92, read-out: percent growth inhibition) was 23.3%, the GI50 (OVCAR-4; OVCAR-4) was 11.6 µM and the inhibition at 10 µM (OVCAR-4; OVCAR-4, read-out: percent growth inhibition) was 48.8%. It also gave a GI50 (SK-OV-3; SK-OV-3) of 15.8 µM, an inhibition at 10 µM (SK-OV-3; SK-OV-3, read-out: percent growth inhibition) of 0.04% and a GI50 (NCI-H522; NCI-H522) of 11.4 µM. The inhibition at 10 µM (NCI-H522; NCI-H522, read-out: percent growth inhibition) was 57.6%, the GI50 (MALME-3M) was 13.3 µM and the inhibition at 10 µM (MALME-3M; [2]) was 41.4%. It also gave a GI50 (SF-268; SF-268) of 16.9 µM, an inhibition at 10 µM (SF-268; SF-268, read-out: percent growth inhibition) of 64.8% and a GI50 (SNB-75; SNB-75) of 9.69 µM. For the same compound, the inhibition at 10 µM (SNB-75; SNB-75, read-out: percent growth inhibition) was 14.7%, the GI50 (NCI-H322M) was 15 µM and the inhibition at 10 µM (NCI-H322M; [2]) was 18.6%. The GI50 (786-0; 786-0) was 15.2 µM, the inhibition at 10 µM (786-0; 786-0, read-out: percent growth inhibition) was 108% and the GI50 (HCT-15; HCT-15) was 3.01 µM. It also gave an inhibition at 10 µM (HCT-15; HCT-15, read-out: percent growth inhibition) of 132%, a GI50 (A549/ATCC; A549) of 16.9 µM and an inhibition at 10 µM (A549/ATCC; A549, read-out: percent growth inhibition) of 16.4%. It also gave a GI50 (NCI-H23; NCI-H23) of 12.9 µM, an inhibition at 10 µM (NCI-H23; NCI-H23, read-out: percent growth inhibition) of 79.3% and a GI50 (M14; M14) of 12.4 µM. The inhibition at 10 µM (M14; M14, read-out: percent growth inhibition) was 91.9%, the GI50 (SR) was 2620 nM and the GI50 ([1]; read-out: Full panel GI50 mean) was 9.96 µM. For the same compound, the GI50 ([1]; read-out: Full panel MG-MID GI50) was 9.96 µM and the “Full panel Mean GI %” value ([1]; mean over NCI-60 panel, single dose 10 µM) was 86.06%.
